Among the data in PubChem BioAssay (NCI) are TGI and GI50 values, retold here.

Assay in all cases: growth of human tumour cells (NCI), 48 h
Test [1] has as its system SNB-75 CNS.
Test [2] deals with A549 NSCLC.
Test [3] concerns SF-539 CNS.
Test [4] has as its system NCI-H226 lung.
Test [5] deals with SW-620 colon.
Test [6] concerns SK-MEL-28 melanoma.
In test [7] the test system is OVCAR-3 ovarian.
Test [8] concerns SK-OV-3 ovarian.
The test system of test [9] is CAKI-1 renal.
For test [10], the system named is HCC-2998 colon.

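A five-concentration, 48-hour dose response in 96-well plates underlies each endpoint, interpolated linearly between surrounding concentrations. GI50 = concentration required for 50% inhibition of growth. TGI denotes the concentration required for complete inhibition of growth.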

Regarding `COc1ccc2[nH]c(-c3ccccn3)cc(=O)c2c1`, the TGI in test [1] was 88 µM; in test [2], above 100 µM; in test [3], 91.9 µM; in test [4], above 100 µM; in test [5], above 100 µM; in test [6], above 100 µM. For the same compound, the TGI in [7] and in test [8] was above 100 µM in each case. Besides, the GI50 in test [4] was 36.6 µM; in test [7], above 100 µM.

Regarding `Oc1ccc(/C=N\Nc2ccccn2)c(O)c1`, the GI50 in test [9] was 0.252 µM; in test [10], 3 µM; in [1] it was 1.46 µM; in [2], 2.51 µM; in [4], 2.25 µM; in test [5], 1.52 µM. The GI50 in [6] was 16 µM; in test [7], 1.77 µM; in test [8] it was 3.24 µM. In addition, the TGI in [9] was 0.687 µM; in [10], above 100 µM; in [1], 6.62 µM; in [2], above 100 µM; in test [4], 7.03 µM; in test [5], above 100 µM. Moreover, the TGI in test [6], in [7] and in test [8] was above 100 µM throughout.

`COc1cc(Nc2nc3cc(N)cc(N)c3nc2-c2ccccc2)cc(OC)c1`: the GI50 in test [9] is 14.9 µM; in test [10] it was 24.3 µM; in test [1], 3.7 µM; in [2], 20.1 µM; in test [4] it was 2.9 µM; in [5], 27.2 µM. For the same compound, the GI50 was 14.7 µM in test [6], 3.9 µM in test [7] and 6.55 µM in [8]. The TGI was 73 µM in test [9]; above 100 µM in test [10]; 44.9 µM in [1]; above 100 µM in [2]; 32.9 µM in [4]; above 100 µM in test [5]. Further, the TGI in [6] was 89.3 µM; in [7] it was 20.1 µM; in [8], 40.2 µM.

On to `CCCC1c2c(ccc3ccccc23)Oc2ccc3ccccc3c21`, for which the TGI in test [9], in [1], in test [2], in test [3], in test [4] and in test [5] was above 100 µM throughout. Also, the TGI in test [6], in test [7] and in test [8] was above 100 µM throughout.

Regarding `CCCCCCCCCCCCCCCCCC(=O)OCC(CN(C)CCN(C)C)OC(=O)CCCCCCCCCCCCCCCCC` (centres undefined), the TGI in [9], in test [10], in [1], in test [2], in test [4] and in [5] was above 100 µM each time. In addition, the TGI in test [6], in test [7] and in test [8] was above 100 µM in each case.

Take `O=S(=O)([O-])c1cccc2cccc(N=Cc3ccccc3[O-])c12.O=S(=O)([O-])c1cccc2cccc(N=Cc3ccccc3[O-])c12.[O]=[U]=[O]`: the GI50 in test [1] was 23.3 µM; in test [2] it was 44.4 µM; in test [3], 36.3 µM; in [4], 84.9 µM; in test [5], 42.1 µM; in test [6] it was above 100 µM. In addition, the GI50 in test [7] and in test [8] was above 100 µM throughout. Also, the TGI in test [1] was 57.9 µM; in [2] it was above 100 µM; in [3], above 100 µM; in test [4] it was above 100 µM; in test [5], above 100 µM; in test [6], above 100 µM. The TGI in [7] and in [8] was above 100 µM throughout.

In the case of `O=c1cc(C(F)(F)F)c2cc3c(cc2o1)NCCC3`, the TGI in test [9], in test [10], in test [2], in test [3], in test [4] and in [5] was above 100 µM throughout. Also, the TGI in test [6] and in [7] was above 100 µM throughout.

Consider `CC(=O)Nc1ccc(/C=C/[N+](=O)[O-])cc1`, for which the TGI in [9] is 2.78 µM; in test [1], 7.64 µM; in [2] it was 17.6 µM; in test [3], 6.35 µM; in [4] it was 3.94 µM; in [5], 11 µM. In addition, the figures for the TGI in [6], in test [7] and in test [8] were 4.13 µM, 10.7 µM and 24.1 µM, respectively.

Consider `N#CC(NNC(=O)c1ccccc1O)c1ccc(O)cc1` (centres undefined), for which the TGI in test [9] is 98.9 µM; in test [2], above 100 µM; in [3], above 100 µM; in [4], 55.1 µM; in [5], above 100 µM; in test [6], above 100 µM. In addition, the TGI was 74 µM in test [7] and above 100 µM in [8].

As for `COCCn1cc(-c2csc(-c3c[nH]c4ccccc34)n2)c2cccnc21`, the GI50 in test [9] was 8.36 µM; in test [10], 4.08 µM; in test [1] it was 1.43 µM; in test [2], 7.1 µM; in [3], 5.91 µM; in [5], 3.52 µM. For the same compound, the GI50 in [6] is 8.18 µM; in test [7] it was 2.94 µM; in [8] it was 14.8 µM. Moreover, the TGI in test [9] is above 100 µM; in [10] it was above 100 µM; in test [1], 24.7 µM; in [2], above 100 µM; in test [3], above 100 µM; in test [5] it was above 100 µM. In addition, the TGI in test [6], in [7] and in test [8] was above 100 µM throughout.

Take `CCCCCCCCCCC/C(=N/O)c1ccc(O)c2ncccc12`: the TGI in [9] was 51.6 µM; in test [10] it was 23.1 µM; in test [1], 13.2 µM; in test [2], 35.8 µM; in test [3] it was 4.91 µM; in [4], 11.9 µM. In addition, the TGI in test [5] and in test [6] was above 100 µM in each case.

For `CCOC(=O)CC(=O)Sc1ccccc1`, the TGI in test [10] is 96 µM; in test [2], 60.6 µM; in [3], 28.6 µM; in test [4] it was 58.4 µM; in [5] it was 39.4 µM; in test [6], 35 µM. Further, the results for the TGI in [7] and in test [8] were 42.7 µM and 49.3 µM, respectively.
